Test results as given in PMC7038240 (Antimicrobial Agents and Chemotherapy, 2020).
Read-outs that look alike come from different tables or passages of the source.

How the values were obtained:
Assay type in all cases: cell-based
[1] = tested on: E. coli; assay: microbe, parasite or virus in culture; settings: Escherichia coli, read-out: MIC
Description: (§1) The antibacterial activity of cefepime-taniborbactam was compared to that of ceftazidime-avibactam, ceftolozane-tazobactam, and cefepime-tazobactam against a diverse panel of Enterobacterales and P. aeruginosa clinical isolates with defined β-lactamase subtypes (see Table S1 in the supplemental material). IMP-producing strains were excluded, as none of the BLI-protected cephalosporins inhibited IMP sufficiently to provide a clinically relevant rescue of the partner β-lactam, a characteristic also shared by approved BLI-protected carbapenems (meropenem-vaborbactam and imipenem-relebactam). […] The antibacterial activity of the cephalosporins alone was included to ascertain the level of potentiation by the partnered BLI. BLIs were tested at a fixed concentration of 4 μg/ml in all combinations except cefepime-tazobactam, where tazobactam was fixed at a concentration of 8 μg/ml ([38]). The collection comprised 143 clinical isolates collected from 2005 and 2018.
(§2) The in vitro antibacterial activity of the β-lactams alone or in combination with the BLIs was determined in cation-adjusted Mueller-Hinton broth (CAMHB) microdilution assays according to CLSI recommendations ([51]). […]. The inocula for the broth microdilution assays were prepared by the broth culture method ([51]). […]

[2] = tested on: K. oxytoca; assay: microbe, parasite or virus in culture; settings: Klebsiella oxytoca
Description: as §1, §2

[3] = tested on: S. marcescens; assay: microbe, parasite or virus in culture; settings: Serratia marcescens
Description: as §1, §2

[4] = tested on: P. aeruginosa; assay: microbe, parasite or virus in culture
Description: as §1, §2

[5] = tested on: K. aerogenes; assay: microbe, parasite or virus in culture; settings: Klebsiella aerogenes
Description: as §1, §2

[6] = tested on: S. paratyphi; assay: microbe, parasite or virus in culture; settings: Salmonella enterica, strain 527, AmpC/TEM-1
Description: as §1, §2

[7] = tested on: S. typhi; assay: microbe, parasite or virus in culture; settings: Salmonella enterica, strain 26A, AmpC/TEM-1
Description: as §1, §2

[8] = tested on: M. morgannii; assay: organism not typed; settings: strain 769909; OXA-48
Description: as §1, §2

Compound `CC(C)(O/N=C(\C(=O)N[C@@H]1C(=O)N2C(C(=O)[O-])=C(C[n+]3ccccc3)CS[C@H]12)c1csc(N)n1)C(=O)O` [CAZ] has an MIC ([1]; strain SI-M004, SHV-2/GES-12) of no less than 256 µg/mL, an MIC ([1]; strain SI-PO26, AmpC/CMY-2/TEM-1) of 64 µg/mL and an MIC ([1]; strain SI-V502, TEM-29/CTX-M-15) of 32 µg/mL. The MIC ([1]; strain VER, OXA-48) was 0.5 µg/mL, the MIC [2] was no less than 256 µg/mL and the MIC ([2]; strain 134943, CMY-2/TEM-1, read-out: MIC) was 128 µg/mL. It also gave an MIC ([3]; strain 134434, AmpC/SHV-12/TEM-1) of 64 µg/mL, an MIC ([3]; strain 192476, AmpC/TEM-1/SHV-5) of 128 µg/mL and an MIC ([3]; strain 192478, AmpC/SHV-12/TEM-1) of 128 µg/mL. The MIC ([3]; strain 218073, AmpC/SHV-7/TEM-1) was 64 µg/mL, the MIC [4] was 64 µg/mL and the MIC ([4]; Pseudomonas aeruginosa, ATCC27853, strain ATCC 27853, W.T., read-out: MIC) was 2 µg/mL. For the same compound, the MIC ([4]; Pseudomonas aeruginosa, strain 10.257, PDC-50, read-out: MIC) was no less than 256 µg/mL, the MIC ([4]; Pseudomonas aeruginosa, strain 11.516, PDC-79, read-out: MIC) was 128 µg/mL and the MIC ([4]; Pseudomonas aeruginosa, strain 11.698, PDC-87, read-out: MIC) was no less than 256 µg/mL. For the same compound, the MIC ([4]; Pseudomonas aeruginosa, strain 11.813, PDC-91, read-out: MIC) was no less than 256 µg/mL, the MIC ([4]; Pseudomonas aeruginosa, strain 13.1716, PDC-74, read-out: MIC) was no less than 256 µg/mL and the MIC ([4]; Pseudomonas aeruginosa, strain 13.1717, PDC-74, read-out: MIC) was no less than 256 µg/mL. The MIC ([4]; Pseudomonas aeruginosa, strain 13.1737, PDC-80, read-out: MIC) was 128 µg/mL, the MIC ([4]; Pseudomonas aeruginosa, strain 13.1755, PDC-86, read-out: MIC) was no less than 256 µg/mL and the MIC ([4]; Pseudomonas aeruginosa, strain 13.1760, PDC-77, read-out: MIC) was no less than 256 µg/mL. It also gave an MIC ([4]; Pseudomonas aeruginosa, strain 13.1775, PDC-87, read-out: MIC) of no less than 256 µg/mL, an MIC ([4]; Pseudomonas aeruginosa, strain 247.3D, VIM-2, read-out: MIC) of no less than 256 µg/mL and an MIC ([4]; Pseudomonas aeruginosa, strain 1129, PDC, read-out: MIC) of 4 µg/mL. The MIC ([4]; Pseudomonas aeruginosa, strain 3615, PDC/TEM-1, read-out: MIC) was 32 µg/mL, the MIC ([4]; Pseudomonas aeruginosa, strain 5671, VIM-1, read-out: MIC) was 128 µg/mL and the MIC ([4]; Pseudomonas aeruginosa, strain 8273, PDC/TEM-1, read-out: MIC) was 16 µg/mL. The MIC ([4]; Pseudomonas aeruginosa, strain 164951, W.T., read-out: MIC) was 2 µg/mL, the MIC ([4]; Pseudomonas aeruginosa, strain 377860, W.T., read-out: MIC) was 4 µg/mL and the MIC ([4]; Pseudomonas aeruginosa, strain 384743, PDC/TEM-1, read-out: MIC) was 16 µg/mL. For the same compound, the MIC ([4]; Pseudomonas aeruginosa, strain 1071703, GES-6, read-out: MIC) was 64 µg/mL, the MIC ([4]; Pseudomonas aeruginosa, strain 1113755, GES-5, read-out: MIC) was no less than 256 µg/mL and the MIC ([4]; Pseudomonas aeruginosa, strain 1138223, GES-19, read-out: MIC) was no less than 256 µg/mL. For the same compound, the MIC ([4]; Pseudomonas aeruginosa, strain 1138337, GES-19, read-out: MIC) was no less than 256 µg/mL, the MIC ([4]; Pseudomonas aeruginosa, strain 1258509, GES-6, read-out: MIC) was 64 µg/mL and the MIC ([4]; Pseudomonas aeruginosa, strain 1275655, GES-20, read-out: MIC) was no less than 256 µg/mL. The MIC ([4]; Pseudomonas aeruginosa, strain 1300089, GES-19, read-out: MIC) was no less than 256 µg/mL, the MIC ([4]; Pseudomonas aeruginosa, strain PA2, W.T., read-out: MIC) was 4 µg/mL and the MIC ([4]; Pseudomonas aeruginosa, strain PAA1-9G1, GES-5, read-out: MIC) was no less than 256 µg/mL. For the same compound, the MIC ([4]; Pseudomonas aeruginosa, strain PAA1-9G2, GES-5, read-out: MIC) was no less than 256 µg/mL, the MIC ([4]; Pseudomonas aeruginosa, strain PS-12, VIM-2, read-out: MIC) was 64 µg/mL and the MIC ([4]; Pseudomonas aeruginosa, strain PS-32, VIM-2, read-out: MIC) was 16 µg/mL. The MIC ([4]; Pseudomonas aeruginosa, strain Paeβ-04, 100-fold ↑ PDC-2/30% OprD/5.6x ↑ABM, read-out: MIC) was 32 µg/mL, the MIC ([4]; Pseudomonas aeruginosa, strain Paeβ-10, 67-fold ↑ PDC-2/0.1% OprD/5.7x↑ABM, read-out: MIC) was 32 µg/mL and the MIC ([4]; Pseudomonas aeruginosa, strain Paeβ-15, 310-fold ↑ PDC-2/10% OprD/4.4x↑XYM, read-out: MIC) was 64 µg/mL. The MIC ([4]; Pseudomonas aeruginosa, strain Paeβ-17, 62-fold ↑PDC-3/30% OprD/10.2x and 9.9x ↑XYM and CDJ, read-out: MIC) was 64 µg/mL, the MIC ([4]; Pseudomonas aeruginosa, strain Paeβ-18, 600-fold ↑ PDC-3/<0.01% OprD/3.9x and 5.6x ↑ABM and XYM, read-out: MIC) was no less than 256 µg/mL and the MIC ([4]; Pseudomonas aeruginosa, strain Paeβ-21, 200-fold ↑ PDC-4/10% OprD/13.5x ↑XYM, read-out: MIC) was 64 µg/mL. For the same compound, the MIC ([4]; Pseudomonas aeruginosa, strain Ps296, VIM-2, read-out: MIC) was 64 µg/mL, the MIC ([5]; strain 73546, AmpC) was 32 µg/mL and the MIC ([5]; strain 110099, AmpC/SHV-12) was 128 µg/mL. It also gave an MIC ([5]; strain 111707, AmpC/TEM-1) of 32 µg/mL, an MIC [6] of 8 µg/mL and an MIC [7] of 64 µg/mL. The MIC [8] was 2 µg/mL.
